In US20110152302A1, “Novel dicyclanil-based shelf stable aqueous suspension and non-aqueous solution pour-on and spray-on formulations useful for the prevention and treatment of insect infestation in animals” (priority 2009, published 2011):

Legend:
[1] = Dicyclanil crystal formation in water with 5% surfactant; type: physicochemical
Procedure: A commercially manufactured batch of Dicyclanil Polymorph A was sourced. This crystalline form was confirmed by X-Ray Diffraction (FIG. 1). Studies were then conducted to determine the ability of various surfactants to prevent the growth of dicyclanil crystals suspended in water. Nonyl phenol and octyl phenol ethoxylates were tested in an aqueous medium according to TABLE 2.
Given the inability of the surfactants of TABLE 2 to prevent crystal growth, a further range of surfactants was tested.

[2] = Maximum solubility of dicyclanil in non-aqueous solvents; type: physicochemical
Procedure: (§1) Materials and Methods: To determine the range of potential non-aqueous solvents to be used in producing dicyclanil solution formulations, a range of solubility studies were performed. The method employed was to add 500 mg quantities of dicyclanil into 10 mL each of solvent. If the drug dissolved it was placed into the refrigerator overnight. Samples were then taken out of the refrigerator and checked for the emergence of precipitate after the sample had been returned to room temperature. Thereafter, dicyclanil was added to each solution, 100 mg each time, until no more dicyclanil would dissolve in the solvent (i.e. dicyclanil was added until the solution reached its saturation concentration for dicyclanil).
Results: An initial range of solvents was obtained (TABLE 12).

[3] = Solubility of dicyclanil in solvents at 25° C.; type: physicochemical
Procedure: as §1
As a result, a further range of solvents was tested. The solvents used for these solubility studies are defined in TABLE 13.

[4] = Solubility of dicyclanil in solvents at 70° C.; type: physicochemical
[5] = Stability of dicyclanil 5% PEG200 solutions, refrigerated and accelerated temperature, 5 days; type: physicochemical
Procedure: Materials and Methods: A formulation was prepared in the following manner (concentration summarized in TABLE 16): • a) Loaded 90% PEG 200 • b) Added Dicyclanil with mixing • c) Made to volume with PEG 200 • d) Mixed until dissolved
Several test formulations were made to determine their stability under refrigerated (2-8° C.) and accelerated temperature (70° C.) conditions for 5 days. DIC 021, 022 and 025 were prepared according to the method described above.

[6] = more active than cyromazine; cited from earlier work
[7] = water with 5% surfactant, Most = >90%

Compound: N#Cc1c(N)nc(NC2CC2)nc1N [Dicyclanil, 4,6-diamino-2-(cyclopropylamino)-5-pyrimidinecarbonitrile]
- Dicyclanil Crystal Formation, 3 days ([1]; water, No surfactant added): Large crystals up to 200μ
- Dicyclanil Crystal Formation, Initial ([1]; water, No surfactant added): Long thin, up to 200μ
- solubility in words ([2]; many of the commonly used veterinary topical solvents (TABLE 12)): quite insoluble
- Maximum solubility (% w/v) ([2]; solvent 2-Pyrollidone): 1% w/v
- Maximum solubility (% w/v) ([2]; solvent Benzyl Alcohol): <1% w/v
- Maximum solubility (% w/v) ([2]; solvent DGBE): 2% w/v
- Maximum solubility (% w/v) ([2]; solvent Glycofurol): 6% w/v
- Maximum solubility (% w/v) ([2]; solvent IPM): <1% w/v
- Maximum solubility (% w/v) ([2]; solvent MIGLYOL 810): <1% w/v
- Maximum solubility (% w/v) ([2]; solvent MIGLYOL 840): <1% w/v
- Maximum solubility (% w/v) ([2]; solvent NMP): 4% w/v
- Maximum solubility (% w/v) ([2]; solvent Propylene Glycol): 1% w/v
- solubility of dicyclanil, soluble at 5% ([3]; 25° C., BA): less
- solubility of dicyclanil, soluble at 5% ([3]; 25° C., DGBE): less
- solubility of dicyclanil, soluble at 5% ([3]; 25° C., DGMEE): less
- solubility of dicyclanil, soluble at 5% ([3]; 25° C., DMA): ✓
- solubility of dicyclanil, soluble at 6% ([3]; 25° C., DMA): ✓
- solubility of dicyclanil, soluble at 7% ([3]; 25° C., DMA): ✓
- solubility of dicyclanil, soluble at 8% ([3]; 25° C., DMA): ✓
- solubility of dicyclanil, soluble at 9% ([3]; 25° C., DMA): ✓
- solubility of dicyclanil, soluble at 10% ([3]; 25° C., DMA, 10%): ✓
- solubility of dicyclanil, soluble at 11% ([3]; 25° C., DMA, 11%): ✓
- solubility of dicyclanil, soluble at 12% ([3]; 25° C., DMA, 12%): ✓
- solubility of dicyclanil, soluble at 13% ([3]; 25° C., DMA, 13%): ✓
- solubility of dicyclanil, soluble at 14% ([3]; 25° C., DMA, 14%): ✓
- solubility of dicyclanil, soluble at 15% ([3]; 25° C., DMA, 15%): ✓
- solubility of dicyclanil, soluble at 16% ([3]; 25° C., DMA, 16%): ✓
- solubility of dicyclanil, soluble at 17% ([3]; 25° C., DMA, 17%): ✓
- solubility of dicyclanil, soluble at 18% ([3]; 25° C., DMA, 18%): ✓
- solubility of dicyclanil, soluble at 5% ([3]; 25° C., DMSO): ✓
- solubility of dicyclanil, soluble at 6% ([3]; 25° C., DMSO): ✓
- solubility of dicyclanil, soluble at 7% ([3]; 25° C., DMSO): ✓
- solubility of dicyclanil, soluble at 8% ([3]; 25° C., DMSO): ✓
- solubility of dicyclanil, soluble at 9% ([3]; 25° C., DMSO): ✓
- solubility of dicyclanil, soluble at 5% ([3]; 25° C., EL): less
- solubility of dicyclanil, soluble at 5% ([3]; 25° C., GF): less
- solubility of dicyclanil, soluble at 5% ([3]; 25° C., IPA): less
- solubility of dicyclanil, soluble at 5% ([3]; 25° C., PEG200): ✓
- solubility of dicyclanil, soluble at 6% ([3]; 25° C., PEG200): ✓
- solubility of dicyclanil, soluble at 7% ([3]; 25° C., PEG200): ✓
- solubility of dicyclanil, soluble at 5% ([3]; 25° C., PEG400): less
- solubility of dicyclanil, soluble at 5% ([3]; 25° C., PG): less
- solubility in words ([3]; Isopropyl Alcohol, Benzyl Alcohol, Ethyl Lactate, Propylene Glycol, Diethylene Glycol monobutyl Ether): quite insoluble
- solubility of dicyclanil in PEG200 ([3]; at 25° C., PEG200): 7%
- solubility of dicyclanil in PEG400 ([3]; at 25° C., PEG400): less than 5%
- solubility of dicyclanil, soluble at 5% ([4]; BA, 5%): less
- solubility of dicyclanil, soluble at 5% ([4]; DGBE, 5%): less
- solubility of dicyclanil, soluble at 5% ([4]; DGMEE, 5%): ✓
- solubility of dicyclanil, soluble at 5% ([4]; DMA, 5%): ✓
- solubility of dicyclanil, soluble at 10% ([4]; DMA): ✓
- solubility of dicyclanil, soluble at 15% ([4]; DMA): ✓
- solubility of dicyclanil, soluble at 20% ([4]; DMA): ✓
- solubility of dicyclanil, soluble at 25% ([4]; DMA): ✓
- solubility of dicyclanil, soluble at 5% ([4]; DMSO, 5%): ✓
- solubility of dicyclanil, soluble at 10% ([4]; DMSO): ✓
- solubility of dicyclanil, soluble at 15% ([4]; DMSO): ✓
- solubility of dicyclanil, soluble at 20% ([4]; DMSO): ✓
- solubility of dicyclanil, soluble at 25% ([4]; DMSO): ✓
- solubility of dicyclanil, soluble at 5% ([4]; EL, 5%): ✓
- solubility of dicyclanil, soluble at 5% ([4]; GF, 5%): ✓
- solubility of dicyclanil, soluble at 10% ([4]; GF): ✓
- solubility of dicyclanil, soluble at 5% ([4]; IPA, 5%): less
- solubility of dicyclanil, soluble at 5% ([4]; PEG400, 5%): ✓
- solubility of dicyclanil, soluble at 5% ([4]; PG, 5%): less
- solubility in PEG (in words) ([5]; PEG): good solubility
- concentration at which dicyclanil remains stable without additional excipients ([5]; PEG-based formulations): at least 5%
- activity relative to cyromazine [6]: 10 times

Compound: CCCCC(CC)COC(=O)CC(C(=O)OCC(CC)CCCC)S(=O)(=O)[O-].[Na+] (centres unmarked) [Docusate sodium]
- Dicyclanil Crystal Formation, 3 days [1, 7]: Large crystals up to 200μ
- Dicyclanil Crystal Formation, Initial [1, 7]: Up to 100μ

Compound: CCCCCCCCCCCCOS(=O)(=O)[O-].[Na+] [Sodium lauryl sulphate]
- Dicyclanil Crystal Formation, 3 days [1, 7]: Large crystals up to 200μ
- Dicyclanil Crystal Formation, Initial [1, 7]: Mostly up to 200μ
